# Where a name gives a salt, the structure may show the parent alone.
# Target: AMPK
# Assay: AMPK activation, enzyme-linked immunosorbent assay
# Format: biochemical
# Conditions: Table 2, AMPK activation, ELISA
row,Compound,EC50 [nM]
1,"CC(C)(C)OC(=O)N1CC[C@@H](NC(=O)c2ccc(OC3CCN(c4ccc(C(F)(F)F)cc4)CC3)cn2)C1 [Compound 23, (R)-tert-butyl 3-(5-(1-(4-(trifluoromethyl)phenyl)piperidin-4-yloxy)picolinamido) pyrrolidine-1-carboxylate]",100 to 500
2,"CC(C)(C)OC(=O)N1CCC(NC(=O)c2ccnc(OC3CCN(c4ccc(C(F)(F)F)cc4)CC3)c2)CC1 [Compound 15, tert-butyl 4-(2-(1-(4-(trifluoromethyl)phenyl)piperidin-4-yloxy)isonicotinamido) piperidine-1-carboxylate]",1000 to 5000
3,"N#Cc1ccc(N2CCC(Oc3ccc(C(=O)NC4CCN(Cc5cccnc5)CC4)nc3)CC2)cc1 [Compound 6, N-(1-(pyridin-3-ylmethyl)piperidin-4-yl)-5-(1-(4-cyanophenyl)piperidin-4-yloxy)picolinamide]",100 to 500
4,"CN(C)c1ccc(CN2CCC(NC(=O)c3ccc(OC4CCN(c5ccc(C(F)(F)F)cc5)CC4)cn3)CC2)cc1 [Compound 39, N-(1-(4-(dimethylamino)benzyl)piperidin-4-yl)-5-(1-(4-(trifluoromethyl)phenyl)piperidin-4-yloxy)picolinamide]",100 to 500
5,"O=C(NC1CCN(Cc2ccc3ccccc3c2)CC1)c1ccc(OC2CCN(c3ccc(C(F)(F)F)cc3)CC2)cn1 [Compound 37, N-(1-(naphthalen-2-ylmethyl)piperidin-4-yl)-5-(1-(4-(trifluoromethyl)phenyl)piperidin-4-yloxy)picolinamide]",500 to 1000
6,"CC(C)(C)OC(=O)N1CCC(NC(=O)c2ccc(OC3CCN(c4ccc(C(F)(F)F)cc4)CC3)nc2)CC1 [Compound 9, tert-butyl 4-(6-(1-(4-(trifluoromethyl)phenyl)piperidin-4-yloxy)nicotinamido) piperidine-1-carboxylate]",100 to 500
7,"O=C(NC1CCN(Cc2ccc(F)cc2)CC1)c1ccnc(OC2CCN(c3ccc(C(F)(F)F)cc3)CC2)c1 [Compound 22, N-(1-(4-fluorobenzyl)piperidin-4-yl)-2-(1-(4-(trifluoromethyl)phenyl)piperidin-4-yloxy)isonicotinamide]",1000 to 5000
8,"O=C(N[C@H]1CCN(Cc2ccc(F)cc2)C1)c1ccc(OC2CCN(c3ccc(C(F)(F)F)cc3)CC2)cn1 [Compound 32, (S)-N-(1-(4-fluorobenzyl)pyrrolidin-3-yl)-5-(1-(4-(trifluoromethyl)phenyl)piperidin-4-yloxy)picolinamide]",100 to 500
9,"O=C(NC1CCN(Cc2ccncc2)CC1)c1ccc(OC2CCN(c3ccc(C(F)(F)F)cc3)CC2)cn1 [Compound 3, N-(1-(pyridin-4-ylmethyl)piperidin-4-yl)-5-(1-(4-(trifluoromethyl)phenyl)piperidin-4-yloxy)picolinamide]",< 100
10,"COC(=O)c1ccc(CN2CCC(NC(=O)c3ccc(OC4CCN(c5ccc(C(F)(F)F)cc5)CC4)nc3)CC2)cc1 [Compound 45, methyl 4-((4-(6-(1-(4-(trifluoromethyl)phenyl)piperidin-4-yloxy)nicotinamido)piperidin-1-yl)methyl)benzoate]",> 10000

# Same assay, conditions: Table 3, AMPK activation, ELISA
row,Compound,EC50 [nM]
1,"N#Cc1ccc(CN2CCC(NS(=O)(=O)c3ccc(OC4CCN(c5ccc(C(F)(F)F)cc5)CC4)nc3)CC2)cc1 [Compound 56, N-(1-(4-cyanobenzyl)piperidin-4-yl)-6-(1-(4-(trifluoromethyl)phenyl)piperidin-4-yloxy)pyridine-3-sulfonamide]",5000 to 50000
2,"O=S(=O)(NC1CCNCC1)c1ccc(OC2CCN(c3ccc(C(F)(F)F)cc3)CC2)nc1 [Compound 55, N-(piperidin-4-yl)-6-(1-(4-(trifluoromethyl)phenyl)piperidin-4-yloxy)pyridine-3-sulfonamide]",1000 to 5000
3,"N#Cc1ccc(N2CCC(Oc3ccc(S(=O)(=O)NC4CCN(Cc5ccncc5)CC4)cn3)CC2)cc1 [Compound 52, N-(1-(pyridin-4-ylmethyl)piperidin-4-yl)-6-(1-(4-cyanophenyl)piperidin-4-yloxy)pyridine-3-sulfonamide]",100 to 500
4,"N#Cc1cccc(CN2CCC(NS(=O)(=O)c3ccc(OC4CCN(c5ccc(C(F)(F)F)cc5)CC4)nc3)CC2)c1 [Compound 57, N-(1-(3-cyanobenzyl)piperidin-4-yl)-6-(1-(4-(trifluoromethyl)phenyl)piperidin-4-yloxy)pyridine-3-sulfonamide]",500 to 1000

# Same assay, conditions: Table 4, AMPK activation, ELISA
row,Compound,EC50 [nM]
1,"CC(C)(C)OC(=O)N1CCC(NC(=O)c2cc3ccc(OC4CCN(c5ccc(C(F)(F)F)cc5)CC4)cc3o2)CC1 [Compound 82, tert-butyl 4-(6-(1-(4-(trifluoromethyl)phenyl)piperidin-4-yloxy)benzofuran-2-carboxamido)piperidine-1-carboxylate]",100 to 500
2,"O=C(NC1CCN(Cc2ccncc2)CC1)c1cc2cc(OC3CCN(c4ccc(OC(F)(F)F)cc4)CC3)ccc2o1 [Compound 78, N-(1-(pyridin-4-ylmethyl)piperidin-4-yl)-5-(1-(4-(trifluoromethoxy)phenyl)piperidin-4-yloxy)benzofuran-2-carboxamide trifluoroacetate salt]",< 100
3,"O=C(NC1CCN(C(=O)c2ccncc2)CC1)c1cc2ccc(OC3CCN(c4ccc(C(F)(F)F)cc4)CC3)cc2o1 [Compound 112, N-(1-isonicotinoylpiperidin-4-yl)-6-(1-(4-(trifluoromethyl)phenyl)piperidin-4-yloxy)benzofuran-2-carboxamide]",< 100
4,"CC(C)(C)OC(=O)N1CCC(NC(=O)c2cc3cc(OC4CCN(c5ccc(C(F)(F)F)cc5)CC4)ccc3o2)CC1 [Compound 85, tert-butyl 4-(5-(1-(4-(trifluoromethyl)phenyl)piperidin-4-yloxy)benzofuran-2-carboxamido)piperidine-1-carboxylate]",500 to 1000
5,"O=C(NC1CCNCC1)c1cc2ccc(OC3CCN(c4ccc(OC(F)(F)F)cc4)CC3)cc2o1 [Compound 83, N-(piperidin-4-yl)-6-(1-(4-(trifluoromethoxy)phenyl)piperidin-4-yloxy)benzofuran-2-carboxamide hydrochloride]",100 to 500
6,"O=C(NC1CCN(S(=O)(=O)c2cccnc2)CC1)c1cc2ccc(OC3CCN(c4ccc(OC(F)(F)F)cc4)CC3)cc2o1 [Compound 108, N-(1-(pyridin-3-ylsulfonyl)piperidin-4-yl)-6-(1-(4-(trifluoromethoxy)phenyl)piperidin-4-yloxy)benzofuran-2-carboxamide]",100 to 500
7,"Cc1c(C(=O)NC2CCN(Cc3cccnc3)CC2)oc2cc(OC3CCN(c4ccc(C(F)(F)F)cc4)CC3)ccc12 [Compound 69, 3-methyl-N-(1-(pyridin-3-ylmethyl)piperidin-4-yl)-6-(1-(4-(trifluoromethyl)phenyl)piperidin-4-yloxy)benzofuran-2-carboxamide]",< 100
8,"O=C(NC1CCNCC1)c1cc2cc(OC3CCN(c4ccc(C(F)(F)F)cc4)CC3)ccc2o1 [Compound 86, N-(piperidin-4-yl)-5-(1-(4-(trifluoromethyl)phenyl)piperidin-4-yloxy)benzofuran-2-carboxamide hydrochloride]",> 50000
9,"Cc1c(C(=O)NC2CCN(Cc3ccccn3)CC2)oc2cc(OC3CCN(c4ccc(C(F)(F)F)cc4)CC3)ccc12 [Compound 68, 3-methyl-N-(1-(pyridin-2-ylmethyl)piperidin-4-yl)-6-(1-(4-(trifluoromethyl)phenyl)piperidin-4-yloxy)benzofuran-2-carboxamide]",< 100
10,"O=C(NC1CCN(Cc2ccncc2)CC1)c1cc2cc(OC3CCN(Cc4ccc(Cl)cc4)CC3)ccc2o1 [Compound 77, 5-(1-(4-chlorobenzyl)piperidin-4-yloxy)-N-(1-(pyridin-4-ylmethyl)piperidin-4-yl)benzofuran-2-carboxamide]",100 to 500
11,"O=C(N[C@@H]1CCNC1)c1cc2cc(OC3CCN(c4ccc(C(F)(F)F)cc4)CC3)ccc2o1 [Compound 121, (R)-N-(pyrrolidin-3-yl)-5-(1-(4-(trifluoromethyl)phenyl)piperidin-4-yloxy)benzofuran-2-carboxamide]",> 50000
12,"CC(C)(C)OC(=O)N1CCC(NC(=O)c2cc3ccc(OC4CCN(c5ccc(OC(F)(F)F)cc5)CC4)cc3o2)CC1 [Compound 81, tert-butyl 4-(6-(1-(4-(trifluoromethoxy)phenyl)piperidin-4-yloxy)benzofuran-2-carboxamido)piperidine-1-carboxylate]",100 to 500
13,"O=C(NC1CCN(Cc2ccccc2)CC1)c1cc2cc(OC3CCN(Cc4ccc(Cl)cc4)CC3)ccc2o1 [Compound 72, N-(1-benzylpiperidin-4-yl)-5-(1-(4-chlorobenzyl)piperidin-4-yloxy)benzofuran-2-carboxamide]",100 to 500
14,"O=C(NC1CCN(Cc2ccc(C(F)(F)F)cc2)CC1)c1cc2cc(OC3CCN(c4ccc(C(F)(F)F)cc4)CC3)ccc2o1 [Compound 100, N-(1-(4-(trifluoromethyl)benzyl)piperidin-4-yl)-5-(1-(4-(trifluoromethyl)phenyl)piperidin-4-yloxy)benzofuran-2-carboxamide]",< 100
15,"CN(C(=O)c1cc2cc(OC3CCN(c4ccc(C(F)(F)F)cc4)CC3)ccc2o1)C1CCN(Cc2cccnc2)CC1 [Compound 109, N-methyl-N-(1-(pyridin-3-ylmethyl)piperidin-4-yl)-5-(1-(4-(trifluoromethyl)phenyl)piperidin-4-yloxy)benzofuran-2-carboxamide]",< 100

# Same assay, conditions: Table 5, AMPK activation, ELISA
row,Compound,EC50 [nM]
1,"O=C(NC1CCN(Cc2ccncc2)CC1)c1cc2cc(OC3CCN(Cc4ccc(Cl)cc4)CC3)ccc2s1 [Compound 139, formate salt]",< 100
2,"O=C(NC1CCNCC1)c1cc2ccc(OC3CCN(c4ccc(C(F)(F)F)cc4)CC3)cc2s1 [Compound 141, N-(piperidin-4-yl)-6-(1-(4-(trifluoromethyl)phenyl)piperidin-4-yloxy)benzo[b]thiophene-2-carboxamide]",100 to 500
3,"CC(C)(C)OC(=O)N1CCC(NC(=O)c2cc3cc(OC4CCN(c5ccc(C(F)(F)F)cc5)CC4)ccc3s2)CC1 [Compound 149, tert-butyl 4-(5-(1-(4-(trifluoromethyl)phenyl)piperidin-4-yloxy)benzo[b]thiophene-2-carboxamido)piperidine-1-carboxylate]",< 100

# — US9174964B2, “AMPK-activating piperidinyloxy-substituted 2,3-dihydro-1H-indene-1-amine compounds and pharmaceutical compositions including the same” (Rigel Pharmaceuticals, Inc., priority 2007, dated 2015)
